Laboratory results: patent US11840531B2, “CDK8/19 inhibitors” (JOINT STOCK COMPANY “BIOCAD”, priority 2018, dated 2023)

Assays:
[1] = Stability of the compounds in human blood plasma; type: in vitro ADME; details: pooled human blood plasma, 10 μM, 4 hours at 37° C.
[2] = Enzyme stability in human liver S9 fractions (Phase II); type: in vitro ADME; details: pH 7.4; 0.5 mg/mL pooled human liver S9 fractions, 10 μM compound, 37° C.; read-out: Enzyme stability Liver S9 fraction CLint
Method: Measuring of enzyme stability of the present compounds enabled estimation of their stability towards the action of Phase II biotransformation enzymes.
Enzyme degradation rate was measured by incubating the reaction mixture in a dry block thermostat at 37° C., said reaction mixture comprising 0.5 mg/mL of pooled human liver S9 fractions (XenoTech, USA, cat #H0610), 10 μM compound, 2 mM β-nicotinamide adenine dinucleotide (Carbosynth, UK, cat #NN10871) and 4 mM magnesium chloride in 0, 1 M sodium-phosphate buffer, pH=7, 4. The reaction was quenched with acetonitrile (100 μL of acetonitrile/100 μL of the reaction mixture). After quenching, the samples were centrifuged at 10000 rpm for 10 minutes. Supernatant fluid was tested by chromatographic technique using Agilent1200 (Agilent, USA). Chromatographic analysis was performed in a gradient elution regime with a flow rate of 1 mL/min A graph of the logarithm of substance's peak area as a function of time was made. The dependent factor of the line corresponded to the elimination rate constant K based on which the drug's half-life T½ and degradation rate CLint were calculated:
Based on the data obtained, candidates' enzyme stability in human liver S9 fractions was determined.

[3] = General cytotoxicity on HepG2 cells; type: cell-based; details: human, 72 h incubation
Method: The CC50 values were determined in the test for General cytotoxicity On HepG2 cells (hepatocellular carcinoma, ATCC® HB-8065™). Cells per well were seeded in 96-well plates (Corning, #3599) at a concentration ≈20×10^3 cells in 100 μL of medium and incubated for 72 h with added compounds within the range of concentrations of 200 to 0.78 μM. Cell viability was assessed using the above method.

[4] = Permeability through Caco-2 cell monolayer; type: in vitro ADME; details: human; for Papp A→B at 2 h, 10 μM: Caco-2, A→B, pH 6.5/7.4, 2 hour incubation; for efflux ratio at 2 h, 10 μM: Caco-2, Papp B-A/Papp A-B
Method: Estimation of permeability through Caco-2 cell monolayer enables assessment of the ability of the substances to penetrate through biological membranes by means of both active and passive transport.
Intestinal epithelial cells Caco-2 were grown on filter inserts (pore size 0.4 jam, BD Falcon with High Density) for 21 days; monolayer integrity was then checked using Lucifer Yellow (Sigma-Aldrich, USA) according to the standard protocol. In A→B transfer (“intestinal lumen”-“blood stream” transfer), solutions of the test substances in buffer, pH 6.5 (HBSS, 10 mM HEPES, 15 mM glucose) at a concentration of 10 μM were added to the upper chamber; whereas the lower chamber was filled with buffer, pH 7.4 (HBSS, 10 mM HEPES, 15 mM Glucose, 1% BSA). In B→A transfer (“blood stream”-“intestinal lumen” transfer), the upper chamber was filled with buffer, pH 6.5, whereas the solutions of the test substances in buffer, pH 7.4, at a concentration of 10 μM were added to the lower chamber. A highly permeable substance propranolol was used as a control.
After 2 hour incubation at 37° C. under an atmosphere containing 5% CO2, the amounts of the test substances in the upper and lower chambers were measured by HPLC using an Agilent1200 HPLC system (Agilent, USA), proteins were preliminarily precipitated with acetonitrile. Chromatographic analysis was performed in a gradient elution regime with a flow rate of 1 mL/min. The peak areas corresponding to the compounds were detected on chromatograms. Based on the peak areas of a compound in the calibration standards, concentration of the compound in the initial solution and in the samples from upper chamber wells and lower chamber wells was measured.
Cellular permeability coefficient Papp was calculated by the formula: Papp=(Ca(t)*Va)/(Cd(0)*t*Area), where Papp is the effective permeability constant, m/s V is the volume of solution (0.8 ml in A→B test, 0.2 ml in B→A test), ml Area is the membrane surface area (0.33 cm^2), cm^2 t is the time of incubation (7200 sec), sec Cd(0) is the initial solution concentration, μM Ca(t) is the concentration of the solution after 2 hours (the concentration in the sample from the well of the lower chamber in A→B test; the concentration in the sample from the well of the top chamber in B→A test), μM
The value was calculated by the following formula: efflux=Papp B-A/Papp A-B, where Pape A-B-direct A→B test permeability value Papp B-A-reverse B→A test permeability value

[5] = Enzyme stability in human liver microsomes (Phase I); type: in vitro ADME; details: pH 7.4; 0.5 mg/mL pooled human liver microsomes, 10 μM compound, 37° C.
Method: Measuring of enzyme stability of the present compounds enabled estimation of their stability towards the action of Phase I biotransformation enzymes.
The rate of enzymatic decomposition of a compound was detected by incubating the reaction mixture in a dry block heater at 37° C.; the reaction mixture contained 0.5 mg/mL of pooled human liver microsomes (XenoTech, USA, cat #H6010), 10 μM of a compound, 2 mM β-nicotinamide adenine dinucleotide (Carbosynth, UK, cat #NN10871) and 4 mM of magnesium chloride in 0.1M sodium phosphate buffer (pH=7.4). The reaction was quenched with acetonitrile (100 μL of acetonitrile/100 μL of the reaction mixture). After quenching, the samples were centrifuged at 10000 rpm for 10 minutes. Supernatant fluid was tested by chromatographic technique using Agilent1200 (Agilent, USA). Chromatographic analysis was performed in a gradient elution regime with a flow rate of 1 mL/min. A graph of the logarithm of substance's peak area as a function of time was made. The dependent factor of the line corresponded to the elimination rate constant K based on which the drug's half-lif½e T and degradation rate CLint were calculated:
Based on the data obtained, candidates' enzyme stability in human liver microsomes was determined.

Row | Chemical stability in human blood plasma 4 h, % [1] | microsomal CLint at 10 μM [2] | Papp A→B at 2 h, 10 μM [4] | efflux ratio at 2 h, 10 μM [4] | microsomal CLint at 10 μM [5] | SMILES | CC50 at 72 h [3]
1 | 91.2% | 1.1 µL/min/mg | 34.5 ×10⁻⁶ cm/s | 0.37 | 39.6 µL/min/mg | COCCn1cc(-c2ccc(-c3cnc(N)c4ncc(C(=O)NCC5CC5)cc34)cc2)cn1 [Compound 3.45, 8-amino-N-(cyclopropylmethyl)-5-(4-(1-(2-methoxyethyl)-1H-pyrazole-4-yl)phenyl)-1,7-naphthyridine-3-carboxamide] | 17.4 µM
2 | 98.4% | 2.5 µL/min/mg | 36.2 ×10⁻⁶ cm/s | 0.64 | 18 µL/min/mg | COCCn1cc(-c2ccc(-c3cnc(N)c4ncc(C(=O)NC5CC5)cc34)cc2)cn1 [Compound 3.48] | 31.8 µM
3 | 100.0% | 2.4 µL/min/mg | 18.7 ×10⁻⁶ cm/s | 1.66 | 7 µL/min/mg | CN(C)C(=O)Cn1cc(-c2ccc(-c3cnc(N)c4ncc(C(=O)N5CCC5)cc34)cc2)cn1 [Compound 3.52, 2-(4-(4-(8-amino-3-(azetidine-1-carbonyl)-1,7-naphthyridine-5-yl)phenyl)-1H-pyrazole-1-yl)-N,N-dimethylacetamide] | > 100 µM
